Assay results reported in patent US20140221639A1, “RADIOLABELED NUCLEOSIDE ANALOGUE, AND PREPARATION METHOD AND USE THEREOF” (Institute of Nuclear Energy Research Atomic Energy Council, …, priority 2011, published 2014).
Values joined by “and” are separate entries in the source; they are usually repeats but may differ in a detail not shown here. Identical values can stand only once. Like-named read-outs stand apart in the source and are kept apart here. Values belong to the molecule of their own block, whether it stands above or below them.

Key:
NG4TL4-WT tumor = test: Biodistribution study in tumor-bearing mice; assay type: in vivo, FVB/N mice; settings: for Biodistribution Blood / Biodistribution Bone / Biodistribution Kidney / Biodistribution Large Intestine / Biodistribution Liver / Biodistribution Lung / Biodistribution Marrow / Biodistribution Pancreas / Biodistribution Stomach / Biodistribution Tumor / Biodistribution Heart / Biodistribution Spleen / Biodistribution Small Intestine / Biodistribution Muscle: 80~90 μCi tail vein, FVB/N mice with NG4TL4-WT tumor
From the text: […] Tumor and 13 other tissures (blood, heart, lung, liver, stomach, small intestine, large intestine, spleen, pancreas, kidney, bone, marrow, and muscle) were removed, rinsed, weighed, and determined for radioactivity with a γ scintilation counter. Uptake of the radioactive trancers in the tissues (counts per min) was calibrated against decay, normalizedto sample weight, and expressed as percentages of injected dosage per gram of tissue (% ID/g) and aggregation ratio of tumor to blood.

[1] = Analysis of metabolites in blood and urine through NP-TLC; assay type: in vivo, FVB/N mice; settings: NP-TLC CH2Cl2/MeOH = 15/1
Protocol: Blood samples were obtained by heart puncture, and then centrifuged at 13,000 rpm for 10 min. Then, the supernatant (about 300 μL) was placed in a 1.5 mL centrifuge tube containing equal amount of ethanol, and then centrifuged again to obtain the serum.

NG4TL4 sarcoma cells = test: Study on incorporation in DNA; assay type: cell-based; settings: 1 μCi/mL medium, 0.5-8 h
Protocol: DNA was extracted with Genomic DNA Mini Kit (Geneaid Biotech Ltd., Taiwan). NG4TL4 cell lines were harvested and inoculated into a petri dish at 2×10^6. […] At 0.5, 1, 2, 4 and 8 h after incubation, the medium was removed, and the cells was washed two times with ice-cold PBS, and then sheared with trypsin and collected to a centrifuge tube for centrifugation (at […] for 1 min). The supernatant was removed, while 50 μL remaining buffer was left to keep the cells in suspension. 300 μL cell lysis buffer was added to the sample and uniformly mixed, the cells was cultured in a water bath at 60° C. for a sereral minutes till the solution was transparent (the sample was inversed once every 3 min). 2 μL RNAse (25 mg/mL) was added to the sample and uniformly mixed, after 5-min incubation at room temperature, 100 μL protein removal buffer was added to the sample, uniformly mixed immediately, and centrifuged for 3 min at full speed (14000 rpm) after 5-min incubation on ice. The resulting solution was transferred as a suspension to another tube, and isopropanol was added and thoroughly mixed. […] In the test, DNA purity was determined at absorption wavelengths of 260 nm and 280 nm, and the ratio of absorbances (OD260/OD280) was about 1.7.

LL/2 cells = test: Cellular uptake test (ratio of cell to medium); assay type: cell-based; settings: 1, 2, 4 and 8 h
Protocol: (§1) 2×10^6 cells was inoculated in a 15 cm^2 dish containing 14 mL medium supplemented with 10% FBS. […] At specified time points (using I-131 tracer at 1, 2, 4 and 8_h), the cells on the dish was harvested by using a cell scraper. Then, a cell suspension was transferred to a 15 mL centrifuge tube and centrifuged (at 3500 rpm) for 2 min. After centrifugation, 100 μL centrifugate was collected to a preweighed counting tube and directly poured into a maintained medium. Cell pellets were frozen with dry ice, and further collected into another weighed counting tube. […] Accumulation of activity of radioactive trancer in cell in vitro is represented by a radio of cell to medium:
(§2) Uptake experimental results of the two radioactive nucleoside analogues [^131I]IUdR and [^131I]ICdR in cells are as shown in FIGS. 4((a), (b)).

NG4TL4 cells = test: Cellular uptake test (ratio of cell to medium); assay type: cell-based; settings: 1, 2, 4 and 8 h
Protocol: as §1, §2

[2] = healthy FVB/N mice, intravenous 200 μCi, blood radioactivity
[3] = in human body, as shown in literatures; cited from earlier work
[4] = in mice, as shown in literatures; cited from earlier work
[5] = literature; cited from earlier work
[6] = 5 min after ^131I-IUdR at tail vein
[7] = 15 min after ^131I-IUdR at tail vein

- Biodistribution Blood (NG4TL4-WT tumor; 5 min): 13.62 ± 1.19 % ID/g
- Biodistribution Bone (NG4TL4-WT tumor; 5 min): 233 ± 035 % ID/g
- Biodistribution Kidney (NG4TL4-WT tumor; 5 min): 18.81 ± 2.44 % ID/g
- Biodistribution Large Intestine (NG4TL4-WT tumor; 5 min): 7.18 ± 038 % ID/g
- Biodistribution Liver (NG4TL4-WT tumor; 5 min): 15.99 ± 2.06 % ID/g
- Biodistribution Lung (NG4TL4-WT tumor; 5 min): 933 + 0.69 % ID/g
- Biodistribution Marrow (NG4TL4-WT tumor; 5 min): 3.98 ± 1.44 % ID/g
- Biodistribution Pancreas (NG4TL4-WT tumor; 5 min): 6.43 ± 0.41 % ID/g
- Biodistribution Stomach (NG4TL4-WT tumor; 5 min): 7.04 ± 0.98 % ID/g
- Biodistribution Tumor (NG4TL4-WT tumor; 5 min): 635 ± 1.93 % ID/g
- Biodistribution Blood (NG4TL4-WT tumor; 30 min): 835 ± 132 % ID/g
- Biodistribution Bone (NG4TL4-WT tumor; 30 min): 2.55 ± 030 % ID/g
- Biodistribution Heart (NG4TL4-WT tumor; 30 min): 3.15 ± 0.4S
- Biodistribution Kidney (NG4TL4-WT tumor; 30 min): 6.95 ± 0.77 % ID/g
- Biodistribution Large Intestine (NG4TL4-WT tumor; 30 min): 5.43 ± 0.88 % ID/g
- Biodistribution Liver (NG4TL4-WT tumor; 30 min): 3.73 ± 0.57 % ID/g
- Biodistribution Lung (NG4TL4-WT tumor; 30 min): 5.80 ± 0.42 % ID/g
- Biodistribution Marrow (NG4TL4-WT tumor; 30 min): 538 ± 1.57 % ID/g
- Biodistribution Pancreas (NG4TL4-WT tumor; 30 min): 5.52 ± 0.84 % ID/g
- Biodistribution Spleen (NG4TL4-WT tumor; 30 min): 6.79 ± 1.66 % ID/g
- Biodistribution Stomach (NG4TL4-WT tumor; 30 min): 24.71 ± 3.20 % ID/g
- Biodistribution Tumor (NG4TL4-WT tumor; 30 min): 6.11 ± 0.97 % ID/g
- Biodistribution Blood (NG4TL4-WT tumor; 1 h): 6.41 ± 036 % ID/g
- Biodistribution Bone (NG4TL4-WT tumor; 1 h): 1.59 ± 039 % ID/g
- Biodistribution Heart (NG4TL4-WT tumor; 1 h): 2.43 ± 0.56 % ID/g
- Biodistribution Large Intestine (NG4TL4-WT tumor; 1 h): 4.73 ± 1.16 % ID/g
- Biodistribution Liver (NG4TL4-WT tumor; 1 h): 2.68 ± 0.48 % ID/g
- Biodistribution Marrow (NG4TL4-WT tumor; 1 h): 9.86 ± 4.50 % ID/g
- Biodistribution Pancreas (NG4TL4-WT tumor; 1 h): 2.84 ± 0.57 % ID/g
- Biodistribution Small Intestine (NG4TL4-WT tumor; 1 h): 6.80 ± 0.81 % ID/g
- Biodistribution Spleen (NG4TL4-WT tumor; 1 h): 4.18 ± 035 % ID/g
- Biodistribution Tumor (NG4TL4-WT tumor; 1 h): 6.61 ± 033 % ID/g
- Biodistribution Blood (NG4TL4-WT tumor; 2 h): 4.19 ± 0.60 % ID/g
- Biodistribution Bone (NG4TL4-WT tumor; 2 h): 132 ± 033 % ID/g
- Biodistribution Liver (NG4TL4-WT tumor; 2 h): 1.67 ± 0.18 % ID/g
- Biodistribution Lung (NG4TL4-WT tumor; 2 h): 2.86 ± 0.55 % ID/g
- Biodistribution Marrow (NG4TL4-WT tumor; 2 h): 6.88 ± 1.19 % ID/g
- Biodistribution Muscle (NG4TL4-WT tumor; 2 h): 0.93 ± 0.14 % ID/g
- Biodistribution Pancreas (NG4TL4-WT tumor; 2 h): 2.50 ± 0.58 % ID/g
- Biodistribution Small Intestine (NG4TL4-WT tumor; 2 h): 6.77 ± 1.50 % ID/g
- Biodistribution Spleen (NG4TL4-WT tumor; 2 h): 3.60 ± 0.40 % ID/g
- Biodistribution Stomach (NG4TL4-WT tumor; 2 h): 15.93 + 333 % ID/g
- Biodistribution Tumor (NG4TL4-WT tumor; 2 h): 5.63 ± 0.74 % ID/g
- Biodistribution Blood (NG4TL4-WT tumor; 4 h): 1.96 ± 0.49 % ID/g
- Biodistribution Bone (NG4TL4-WT tumor; 4 h): 0.62 ± 0.29 % ID/g
- Biodistribution Heart (NG4TL4-WT tumor; 4 h): 0.88 ± 0.46 % ID/g
- Biodistribution Kidney (NG4TL4-WT tumor; 4 h): 1.77 ± 0.71 % ID/g
- Biodistribution Lung (NG4TL4-WT tumor; 4 h): 1.60 ± 0.71 % ID/g
- Biodistribution Marrow (NG4TL4-WT tumor; 4 h): 6.63 ± 3.84 % ID/g
- Biodistribution Muscle (NG4TL4-WT tumor; 4 h): 0.53 ± 0.26 % ID/g
- Biodistribution Pancreas (NG4TL4-WT tumor; 4 h): 1.18 ± 0.56 % ID/g
- Biodistribution Small Intestine (NG4TL4-WT tumor; 4 h): 4.76 ± 1.26 % ID/g
- Biodistribution Spleen (NG4TL4-WT tumor; 4 h): 1.86 ± 0.63 % ID/g
- Biodistribution Stomach (NG4TL4-WT tumor; 4 h): 4.49 ± 3.02 % ID/g
- Biodistribution Tumor (NG4TL4-WT tumor; 4 h): 3.97 ± 1.00 % ID/g
- Biodistribution Blood (NG4TL4-WT tumor; 8 h): 0.48 ± 0.23 % ID/g
- Biodistribution Bone (NG4TL4-WT tumor; 8 h): 036 ± 0.12 % ID/g
- Biodistribution Heart (NG4TL4-WT tumor; 8 h): 0.19 ± 0.09 % ID/g
- Biodistribution Kidney (NG4TL4-WT tumor; 8 h): 0.56 ± 0.21 % ID/g
- Biodistribution Large Intestine (NG4TL4-WT tumor; 8 h): 1.78 ± 0.57 % ID/g
- Biodistribution Lung (NG4TL4-WT tumor; 8 h): 0.44 ± 0.21 % ID/g
- Biodistribution Marrow (NG4TL4-WT tumor; 8 h): 5.00 ± 1.59 % ID/g
- Biodistribution Muscle (NG4TL4-WT tumor; 8 h): 0.13 ± 0.03 % ID/g
- Biodistribution Small Intestine (NG4TL4-WT tumor; 8 h): 3.40 ± 0.60 % ID/g
- Biodistribution Tumor (NG4TL4-WT tumor; 8 h): 2.50 ± 0.79 % ID/g
- excretion of drug and metabolites (NG4TL4-WT tumor; mice): mainly through the urinary system
- ^131I-IU (%) in Blood [1, 6]: 3.65 ± 3.03%
- ^131I-IU (%) in Urine [1, 6]: 4.45 ± 3.03%
- ^131I-IUdR (%) in Blood [1, 6]: 25.23 ± 2.88%
- ^131I-IUdR (%) in Urine [1, 6]: 8.60 ± 2.88%
- ^131I-I^- (%) in Blood [1, 6]: 71.1% and 71.12 ± 5.83%
- ^131I-I^- (%) in Urine [1, 6]: 88.0% and 86.96 ± 5.83%
- ^131I-IU (%) in Blood [1, 7]: 1.58 ± 0.72%
- ^131I-IU (%) in Urine [1, 7]: 2.76 ± 1.23%
- ^131I-IUdR (%) in Blood [1, 7]: 6.42 ± 3.89%
- ^131I-IUdR (%) in Urine [1, 7]: 5.23 ± 2.05%
- ^131I-I^- (%) in Blood [1, 7]: 92.00 ± 4.51%
- ^131I-I^- (%) in Urine [1, 7]: 92.02 ± 3.27%
- Cmax [2]: 18.91 ± 6.16 % ID/mL
- t1/2α [2]: 4.8 ± 1.2 min
- t1/2β [2]: 2.28 ± 0.90 h
- Cmax ([2]; listed as 131I-IudR): 18.91±6.16 % ID/mL
- t1/2α ([2]; listed as 131I-IudR): 4.8 ± 1.2 min
- t1/2β ([2]; listed as 131I-IudR): 2.28 ± 0.90 h
SMILES: O=c1[nH]c(=O)n([C@H]2C[C@H](O)[C@@H](CO)O2)cc1[131I] [^131I-IUdR, 5-[^124/131I]iodo-2′-deoxyuridine, reference compound]
- accumulation in organs (biodistribution and imaging) (NG4TL4-WT tumor; tumor-bearing mice): obviously accumulated in organs that rapidly proliferates
- incorporation into cells / radioactive accumulation in DNA with time (NG4TL4 sarcoma cells): linearly incorporated
- uptake value over time (LL/2 cells): continuously increased with time
- uptake value over time (NG4TL4 cells): continuously increased with time

SMILES: O=c1[nH]c(=O)n([C@H]2C[C@H](O)[C@@H](CO)O2)cc1I [IUdR]
- in vivo physiological half life [3]: 5 min
- in vivo physiological half life [4]: 7 min

SMILES: Cc1cn([C@@H]2O[C@H](CO)[C@@H](O)[C@@H]2[18F])c(=O)[nH]c1=O [[^18F]FMAU, 2-[^18F]fluoro-5-methyl-1-β-D-arabinofuranosyluracil]
- stability in the organism [5]: very stable
